IC50 data for 51 molecules are collected here from patent US20250092016A1, “COMPOUNDS AND COMPOSITIONS FOR THE TREATMENT OF CORONAVIRAL RELATED DISEASES” (priority 2021, published 2025).

For this experiment, the target named is SARS-CoV-2 main protease (M^pro) (Severe acute respiratory syndrome coronavirus 2, UniProt P0DTD1). Description: Rapid-Fire MS Biochemical Assay measuring Mpro activity (5 nM Mpro). The conditions noted are these: Table 1B, Mpro inhibition, 5 μM substrate peptide, 120 min, read-out: Rapid-Fire Assay IC50.

Where only a bound is given, the exact number is not on record here.

In the case of `N#C[C@@H]1CN([C@H]2C[C@H](C3CC3)C2)C(=O)N1c1cncc2ccccc12` [Compound 124c, (S)-1-((1r,3S)-3-cyclopropylcyclobutyl)-3-(isoquinolin-4-yl)-2-oxoimidazolidine-4-carbonitrile], the IC50 is more than 1000 nM.
As for `N#C[C@@H]1CN(c2cccc(Cl)n2)C(=O)N1c1cncc2ccccc12` (single isomer, unassigned) [Compound 111b], the figure is 200 to 1000 nM.
Take `Cn1ccc(N2C[C@@H](C#N)N(c3cncc4ccccc34)C2=O)cc1=O` (single isomer, unassigned) [Compound 67b]: the IC50 was more than 1000 nM.
As to `COc1ccc(C#N)cc1N1CC(C#N)N(c2cncc3ccccc23)C1=O` (racemic) [Compound 15, 1-(5-cyano-2-methoxyphenyl)-3-(isoquinolin-4-yl)-2-oxoimidazolidine-4-carbonitrile], the IC50 is less than 20 nM.
On to `N#C[C@H]1CN(c2ccccc2F)C(=O)N1c1cncc2ccccc12` (single isomer, unassigned) [Compound 56a], for which the IC50 lay in the range of 20 to 200 nM.
For `CC1(C)CC(N2C[C@H](C#N)N(c3cncc4ccccc34)C2=O)C1` (single isomer, unassigned) [Compound 126a], the IC50 is less than 20 nM.
In the case of `N#Cc1ccc(C(F)(F)F)cc1N1C[C@@H](C#N)N(c2cncc3ccccc23)C1=O` (single isomer, unassigned) [Compound 90b], the IC50 is more than 1000 nM.
As to `COc1cc(Cl)cnc1N1CC(C#N)N(c2cncc3ccccc23)C1=O` (racemic) [Compound 58, 1-(5-chloro-3-methoxypyridin-2-yl)-3-(isoquinolin-4-yl)-2-oxoimidazolidine-4-carbonitrile], the concentration for half-maximal inhibition (IC50) was 200 to 1000 nM.
As for `CS(=O)(=O)N1CC(N2C[C@H](C#N)N(c3cncc4ccccc34)C2=O)C1` (single isomer, unassigned) [Compound 130a], the figure is 200 to 1000 nM.
As for `N#C[C@@H]1CN(c2cccc(F)c2)C(=O)N1c1cncc2ccccc12` (single isomer, unassigned) [Compound 76b], the figure is more than 1000 nM; as for `N#C[C@H]1CN(c2cc(OC(F)F)ccc2F)C(=O)N1c1cncc2ccccc12` (single isomer, unassigned) [Compound 59a], 20 to 200 nM.
With `N#C[C@@H]1CN(c2cccc(F)n2)C(=O)N1c1cncc2ccccc12` (single isomer, unassigned) [Compound 61b], the half-inhibitory concentration (IC50) was more than 1000 nM.
As for `Cc1ccc(Cl)cc1N1C[C@H](C#N)N(c2cncc3ccccc23)C1=O` (single isomer, unassigned) [Compound 114a], the figure is less than 20 nM; as for `Cn1c(C(F)(F)F)ccc(N2C[C@H](C#N)N(c3cncc4ccccc34)C2=O)c1=O` (single isomer, unassigned) [Compound 96a], 20 to 200 nM.
As for `N#Cc1ccc2cncc(N3C(=O)N(c4cccc(Cl)c4)C[C@@H]3C#N)c2c1` (single isomer, unassigned) [Compound 39a], the figure is less than 20 nM.
Under `C[C@H]1[C@@H](C#N)N(c2cncc3ccccc23)C(=O)N1c1cccc(Cl)c1` (single isomer, unassigned) [Compound 43b] stands 200 to 1000 nM; under `N#C[C@H]1CN(c2cccc(OC(F)(F)F)c2)C(=O)N1c1cncc2ccccc12` (single isomer, unassigned) [Compound 92a], less than 20 nM.
`Cc1ccc(OC(F)F)cc1N1C[C@@H](C#N)N(c2cncc3ccccc23)C1=O` (single isomer, unassigned) [Compound 101b]: the IC50 was more than 1000 nM.
As for `N#C[C@H]1CN([C@H]2C[C@@H](C3CC3)C2)C(=O)N1c1cncc2ccccc12` [Compound 124a, (R)-1-((1s,3S)-3-cyclopropylcyclobutyl)-3-(isoquinolin-4-yl)-2-oxoimidazolidine-4-carbonitrile], the half-inhibitory concentration (IC50) is less than 20 nM.
As for `CS(=O)(=O)c1ccc2cncc(N3C(=O)N(c4ccc(F)c(F)c4)C[C@H]3C#N)c2c1` (single isomer, unassigned) [Compound 85b], the figure is more than 1000 nM; as for `N#C[C@@H]1CN(c2ccc(C(F)(F)F)nn2)C(=O)N1c1cncc2ccccc12` (single isomer, unassigned) [Compound 81b], more than 1000 nM; as for `N#C[C@H]1CN(c2ccc(OC(F)F)cc2F)C(=O)N1c1cncc2ccccc12` (single isomer, unassigned) [Compound 83a], 20 to 200 nM.
Consider `N#C[C@@H]1CN(c2ccc(OC(F)(F)F)cc2)C(=O)N1c1cncc2ccccc12` (single isomer, unassigned) [Compound 91b], for which the 50% inhibitory concentration (IC50) is more than 1000 nM.
As for `N#C[C@H]1CN(c2ccc(F)cc2F)C(=O)N1c1cncc2ccccc12` (single isomer, unassigned) [Compound 66a], the figure is less than 20 nM.
Take `N#C[C@@H]1CN(c2ccc(F)cc2F)C(=O)N1c1cncc2ccccc12` (single isomer, unassigned) [Compound 66b]: the IC50 was more than 1000 nM.
With `CS(=O)(=O)c1ccc2cncc(N3C(=O)N(c4cccc(Cl)c4)CC3C#N)c2c1` (racemic) [Compound 37, 1-(3-chlorophenyl)-3-(6-(methylsulfonyl)isoquinolin-4-yl)-2-oxoimidazolidine-4-carbonitrile], the IC50 is less than 20 nM.
Regarding `N#C[C@H]1CN(c2ncc(Cl)cn2)C(=O)N1c1cncc2ccccc12` (single isomer, unassigned) [Compound 16a], the half-maximal inhibitory concentration (IC50) is less than 20 nM.
As to `N#Cc1ccc(C(F)(F)F)cc1N1C[C@H](C#N)N(c2cncc3ccccc23)C1=O` (single isomer, unassigned) [Compound 90a], the IC50 was less than 20 nM.
For `N#C[C@@H]1CN(C2CC3(C2)CC(F)(F)C3)C(=O)N1c1cncc2ccccc12` (single isomer, unassigned) [Compound 127b], the IC50 is more than 1000 nM.
Take `N#CC1CN(c2ccnc(C(F)(F)F)c2)C(=O)N1c1cncc2ccccc12` (racemic) [Compound 57, 3-(isoquinolin-4-yl)-2-oxo-1-(2-(trifluoromethyl)pyridin-4-yl)imidazolidine-4-carbonitrile]: the concentration for half-maximal inhibition (IC50) was less than 20 nM.
Regarding `N#C[C@@H]1CN(C2CC3(CCC3)C2)C(=O)N1c1cncc2ccccc12` (single isomer, unassigned) [Compound 122b], the half-inhibitory concentration (IC50) is more than 1000 nM.
As for `COc1nc(C(F)(F)F)ccc1N1C[C@H](C#N)N(c2cncc3ccccc23)C1=O` (single isomer, unassigned) [Compound 95a], the figure is less than 20 nM.
For the molecule `Cc1cc(N2C[C@@H](C#N)N(c3cncc4ccccc34)C2=O)cnc1C` (single isomer, unassigned) [Compound 98b], the IC50 is more than 1000 nM.
Consider `N#C[C@@H]1CN(c2cc(C(F)(F)F)cnn2)C(=O)N1c1cncc2ccccc12` (single isomer, unassigned) [Compound 30b], for which the IC50 is more than 1000 nM.
As for `N#Cc1cnc(C(F)(F)F)cc1N1C[C@H](C#N)N(c2cncc3ccccc23)C1=O` (single isomer, unassigned) [Compound 117a], the figure is less than 20 nM.
As for `N#CC1CN(c2nc(Cl)c[nH]2)C(=O)N1c1cncc2ccccc12` (racemic) [Compound 119, 1-(4-chloro-1H-imidazol-2-yl)-3-(isoquinolin-4-yl)-2-oxoimidazolidine-4-carbonitrile], the figure is 20 to 200 nM; as for `N#C[C@H]1CN(c2ccc(Cl)cn2)C(=O)N1c1cncc2ccccc12` (single isomer, unassigned) [Compound 41a], less than 20 nM; as for `CC(C)(C)CN1C[C@@H](C#N)N(c2cncc3ccccc23)C1=O` (single isomer, unassigned) [Compound 140b], more than 1000 nM.
In the case of `COc1cc(Cl)ccc1N1C[C@H](C#N)N(c2cncc3ccccc23)C1=O` (single isomer, unassigned) [Compound 103a], the half-inhibitory concentration (IC50) was less than 20 nM.
Under `N#C[C@@H]1CN(c2nccc(C(F)(F)F)n2)C(=O)N1c1cncc2ccccc12` (single isomer, unassigned) [Compound 49b] stands more than 1000 nM; under `COc1cnc(C(F)(F)F)cc1N1C[C@H](C#N)N(c2cncc3ccccc23)C1=O` (single isomer, unassigned) [Compound 14a], less than 20 nM.
Under `N#C[C@H]1CN(c2ccnc(C(F)(F)F)c2)C(=O)N1c1cncc2ccccc12` (single isomer, unassigned) [Compound 57a] stands less than 20 nM; under `N#CC1CN(c2ccc(=O)[nH]c2)C(=O)N1c1cncc2ccccc12` (racemic) [Compound 113, 3-(isoquinolin-4-yl)-2-oxo-1-(6-oxo-1,6-dihydropyridin-3-yl)imidazolidine-4-carbonitrile], more than 1000 nM; under `C[C@@]1(C#N)CN(c2cccc(Cl)c2)C(=O)N1c1cncc2ccccc12` (single isomer, unassigned) [Compound 40b], more than 1000 nM.
For `N#C[C@H]1CN(C2CC3(CCC3)C2)C(=O)N1c1cncc2ccccc12` (single isomer, unassigned) [Compound 122a], the IC50 is less than 20 nM.
For `N#C[C@H]1CN(c2nc(Cl)c[nH]2)C(=O)N1c1cncc2ccccc12` (single isomer, unassigned) [Compound 119a], the IC50 fell in the range of 20 to 200 nM.
Under `N#C[C@H]1CN(c2cccc(OC(F)F)c2)C(=O)N1c1cncc2ccccc12` (single isomer, unassigned) [Compound 89a] stands less than 20 nM; under `Cc1cnc(C(F)(F)F)cc1N1C[C@H](C#N)N(c2cncc3ccccc23)C1=O` (single isomer, unassigned) [Compound 70a], less than 20 nM; under `N#CC1CN(c2cccc(OC(F)(F)F)c2)C(=O)N1c1cncc2ccccc12` (racemic) [Compound 92, 3-(isoquinolin-4-yl)-2-oxo-1-(3-(trifluoromethoxy)phenyl)imidazolidine-4-carbonitrile], less than 20 nM.
As for `N#C[C@H]1CN(c2cncc(C(F)(F)F)c2)C(=O)N1c1cncc2ccccc12` (single isomer, unassigned) [Compound 104a], the figure is less than 20 nM; as for `N#C[C@@H]1CN(c2ccc(F)c(Cl)c2)C(=O)N1c1cncc2ccccc12` (single isomer, unassigned) [Compound 87b], more than 1000 nM.
